Assay results published in ChEMBL document CHEMBL1201862, “PubChem BioAssay data set” (2004).
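Results reflect a 48-hour exposure of cells in 96-well plates to compound at five concentrations. GI50 marks 50% less growth.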 Activity calls are given as the source filed them. Cut-off read from the data, not from the text of the source: active = GI50 up to about 1.1 µM and inactive = higher. Where a SMILES comes first, the peptide text is derived from it. [ ]: non-standard residue; d: D form. The star is where a group is joined. Phe(4-NO2) = N[CH](Cc1ccc([N+](=O)[O-])cc1)C(=O)O; Boc = CC(C)(C)OC(=O)*; OtBu = CC(C)(C)O*

Legend:
Test in all cases: NCI anticancer screen, dose series, 48 h
786-0 = tested on: 786-0
A549 = tested on: A549
ACHN = tested on: ACHN
COLO 205 = tested on: COLO 205
EKVX = tested on: EKVX
HOP-62 = tested on: HOP-62
HT-29 = tested on: HT-29
K562 = tested on: K562
MDA-N = tested on: MDA-N
NCI-H522 = tested on: NCI-H522
NCI/ADR-RES = tested on: NCI/ADR-RES
OVCAR-3 = tested on: OVCAR-3
RPMI-8226 = tested on: RPMI-8226
SF-295 = tested on: SF-295
SK-MEL-2 = tested on: SK-MEL-2
SK-MEL-5 = tested on: SK-MEL-5
SNB-19 = tested on: SNB-19
SNB-75 = tested on: SNB-75
TK-10 = tested on: TK-10
UO-31 = tested on: UO-31

SMILES | GI50 (786-0) | GI50 (A549) | GI50 (ACHN) | GI50 (COLO 205) | GI50 (EKVX) | GI50 (HOP-62) | GI50 (HT-29) | GI50 (K562) | GI50 (MDA-N) | GI50 (NCI-H522) | GI50 (NCI/ADR-RES) | GI50 (OVCAR-3) | GI50 (RPMI-8226) | GI50 (SF-295) | GI50 (SK-MEL-2) | GI50 (SK-MEL-5) | GI50 (SNB-19) | GI50 (SNB-75) | GI50 (TK-10) | GI50 (UO-31)
CC(=O)N1C(C(=O)NNc2ccccc2)CSC1c1ccccc1 (stereo not given) | > 100 µM (inactive) | 71 µM (inactive) | 4.47 µM (inactive) | 64.9 µM (inactive) | > 100 µM (inactive) | > 100 µM (inactive) | > 100 µM (inactive) | 3.42 µM (inactive) | > 100 µM (inactive) | 0.471 µM (active) | > 100 µM (inactive) | 58.2 µM (inactive) | 37.8 µM (inactive) | > 100 µM (inactive) | > 100 µM (inactive) | > 100 µM (inactive) | > 100 µM (inactive) | > 100 µM (inactive) | > 100 µM (inactive) | 70.8 µM (inactive)
CCC(=O)C(C(C)/C=C/CCSc1ccccc1)C(O)CCCCCC(=O)OC (stereo not given) | > 100 µM (inactive) | 91.6 µM (inactive) | > 100 µM (inactive) | > 100 µM (inactive) | > 100 µM (inactive) | > 100 µM (inactive) | > 100 µM (inactive) | 46.3 µM (inactive) | > 100 µM (inactive) | 89.3 µM (inactive) | 99.5 µM (inactive) | > 100 µM (inactive) | > 100 µM (inactive) | > 100 µM (inactive) | > 100 µM (inactive) | 36.8 µM (inactive) | > 100 µM (inactive) | > 100 µM (inactive) | > 100 µM (inactive) | > 100 µM (inactive)
COc1ccc(/C=N/N=C(\N)NO)c(O)c1 | > 10 µM (inactive) | > 10 µM (inactive) | 5.96 µM (inactive) | > 10 µM (inactive) | > 10 µM (inactive) | > 10 µM (inactive) | 5.66 µM (inactive) | 4.41 µM (inactive) | > 10 µM (inactive) | > 10 µM (inactive) | 3.92 µM (inactive) | 5.51 µM (inactive) | > 10 µM (inactive) | > 10 µM (inactive) | > 10 µM (inactive) | 3.53 µM (inactive) | > 10 µM (inactive) | 0.0678 µM (active) | > 10 µM (inactive) | > 10 µM (inactive)
COC(=O)C1CCC(=O)N1CN(C(C)=O)c1ccccc1 (stereo not given) | > 100 µM (inactive) | > 100 µM (inactive) | > 100 µM (inactive) | > 100 µM (inactive) | > 100 µM (inactive) | > 100 µM (inactive) | > 100 µM (inactive) | > 100 µM (inactive) | > 100 µM (inactive) | > 100 µM (inactive) | > 100 µM (inactive) | > 100 µM (inactive) | > 100 µM (inactive) | > 100 µM (inactive) | > 100 µM (inactive) | > 100 µM (inactive) | > 100 µM (inactive) | > 100 µM (inactive) | > 100 µM (inactive) | > 100 µM (inactive)
Cc1[nH]n(-c2ccc(S(=O)(=O)O)cc2)c(=O)c1/N=N/c1ccccc1 | > 100 µM (inactive) | > 100 µM (inactive) | 55.2 µM (inactive) | > 100 µM (inactive) | > 100 µM (inactive) | > 100 µM (inactive) | > 100 µM (inactive) | > 100 µM (inactive) | > 100 µM (inactive) | 35 µM (inactive) | > 100 µM (inactive) | > 100 µM (inactive) | > 100 µM (inactive) | > 100 µM (inactive) | > 100 µM (inactive) | > 100 µM (inactive) | > 100 µM (inactive) | > 100 µM (inactive) | > 100 µM (inactive) | > 100 µM (inactive)
COC(=O)C(Cc1ccc([N+](=O)[O-])cc1)NC(=O)C(CC(=O)OC(C)(C)C)NC(=O)OC(C)(C)C (stereo not given) (Boc-Asp(OtBu)-[Phe(4-NO2)]-OMe; configuration not given here) | > 100 µM (inactive) | > 100 µM (inactive) | > 100 µM (inactive) | 30.2 µM (inactive) | > 100 µM (inactive) | > 100 µM (inactive) | > 100 µM (inactive) | > 100 µM (inactive) | > 100 µM (inactive) | 63.5 µM (inactive) | > 100 µM (inactive) | > 100 µM (inactive) | 40 µM (inactive) | > 100 µM (inactive) | > 100 µM (inactive) | > 100 µM (inactive) | > 100 µM (inactive) | 55.5 µM (inactive) | > 100 µM (inactive) | 14.3 µM (inactive)
CCCCCCCCCCCCCC(=O)O[C@H]1CC[C@H](NC(=O)[C@H](OC)[C@H](O)[C@@H](O)[C@H](O)/C=C/C(C)C)C(=O)NC1 [BENGAMIDE A] | 0.00512 µM (active) | 0.00512 µM (active) | 0.0592 µM (active) | 0.00512 µM (active) | 0.234 µM (active) | 0.235 µM (active) | 0.00619 µM (active) | 0.00512 µM (active) | 0.0598 µM (active) | 0.011 µM (active) | 5.18 µM (inactive) | 0.0147 µM (active) | 0.00634 µM (active) | 0.0927 µM (active) | 0.251 µM (active) | 0.0105 µM (active) | 0.0115 µM (active) | 0.0353 µM (active) | 0.0726 µM (active) | 0.106 µM (active)
